# Experimental data from ChEMBL document CHEMBL3137667, “[Drug-induced liver injury; fourteenth updated edition of the bibliographic database of liver injuries and related drugs]” (Gastroenterol Clin Biol, 2004).
# How the values were obtained:
# [1] = Highest frequency of moderate liver toxicity observed during clinical trials, expressed as a percentage. [column '% BIOL' in source]; conditions: human
# [2] = Highest frequency of acute liver toxicity observed during clinical trials, expressed as a percentage. [column '% AIGUE' in source]; conditions: human
# [3] = Presence of at least one case with successful reintroduction. [column 'REINT' in source]; conditions: human
# [4] = Times to onset, minimal and maximal, observed in the indexed observations. [column 'DELAI' in source]; conditions: human
# [5] = human, serum
# [6] = human, serum; remark: listed apart in the source
# [7] = human
# [8] = human; remark: listed apart in the source
# [9] = human; remark: listed apart in the source
# [10] = human, serum, 4383 h
# [11] = human; remark: listed apart in the source
# [12] = human; remark: listed apart in the source
# [13] = human; remark: listed apart in the source
# [14] = human; remark: listed apart in the source
# [15] = human; remark: listed apart in the source
# [16] = human; remark: listed apart in the source
# 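Throughout, for Hepatotoxicity (association with vascular disease): count of indexed literature references reporting vascular liver injury in humans, e.g. peliosis hepatitis, hepatic veno-occlusive disease or Budd-Chiari syndrome.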
# 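Throughout, for Hepatotoxicity (benign tumour): value is a count of indexed literature references citing a benign tumour confirmed by histopathology.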
# 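Throughout, for Hepatotoxicity (choleostasis): human cholestatic liver injury, shown by histopathology or by peak ALT or AST elevation over alkaline phosphatase ratio below 2, value counts indexed literature reports.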
# 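Throughout, for Hepatotoxicity (chronic liver disease): chronic liver injury confirmed by histopathology or persistently raised serum aminotransferase activity beyond 6 months, value given as the count of indexed literature references.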
# 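Throughout, for Hepatotoxicity (cirrhosis): value is a count of indexed literature references reporting cirrhosis confirmed by histopathology.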
# 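Throughout, for Hepatotoxicity (cytolytic): human cytolytic liver injury, shown by histopathology or by a ratio above 5 of peak ALT or AST elevation to alkaline phosphatase elevation, value counts indexed references.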
# 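Throughout, for Hepatotoxicity (granulomatous hepatitis): value is a count of indexed literature references reporting granulomatous liver disease confirmed by histopathology.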
# 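Throughout, for Hepatotoxicity (malignant tumour): malignant tumour confirmed by histopathology, value gives the count of indexed literature references reporting it.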
# 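Throughout, for Hepatotoxicity (severe hepatitis): human clinical data: severe hepatitis, meaning potentially life-threatening liver failure or clinically observed cases, the value counts how many indexed literature references report it.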
# 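Throughout, for Hepatotoxicity (steatosis): steatosis confirmed by histopathology, value is the count of indexed references.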
SMILES,Hepatotoxicity (moderate) [1] [%],Hepatotoxicity (acute) [2] [%],Hepatotoxicity (successful reintroduction) [3],Hepatotoxicity (time to onset) [4],Hepatotoxicity (moderate) [5],Hepatotoxicity (acute) [6],Hepatotoxicity (cytolytic) [7],Hepatotoxicity (choleostasis) [8],Hepatotoxicity (severe hepatitis) [9],Hepatotoxicity (chronic liver disease) [10],Hepatotoxicity (cirrhosis) [11],Hepatotoxicity (granulomatous hepatitis) [12],Hepatotoxicity (association with vascular disease) [13],Hepatotoxicity (steatosis) [14],Hepatotoxicity (malignant tumour) [15],Hepatotoxicity (benign tumour) [16],other results
NCCS [CYSTEAMINE],0,0,yes,2 weeks - 2 years,0,1,1,0,0,0,0,0,1,0,0,0,–
CN(C)CC[C@@H](c1ccc(Cl)cc1)c1ccccn1 [DEXCHLORPHENIRAMINE],–,–,yes,9 days,0,1,1,0,–,0,0,0,0,0,0,0,Hepatotoxicity (moderate) ([1]; Liver): 0%; Hepatotoxicity (acute) ([2]; Liver): 0%; Hepatotoxicity (severe hepatitis) ([9]; Liver): 0
CC[C@H](C)[C@H]1NC(=O)[C@@H](NC(=O)[C@@H](CC(C)C)N(C)C(=O)[C@@H]2CCCN2C(=O)C(C)O)[C@@H](C)OC(=O)[C@H](Cc2ccc(OC)cc2)N(C)C(=O)[C@@H]2CCCN2C(=O)[C@H](CC(C)C)NC(=O)[C@@H](C)C(=O)[C@H](C(C)C)OC(=O)C[C@@H]1O (some centres undefined) [DIDEMNIN B],32,5.3,yes,1 week,3,2,0,1,0,0,0,0,0,0,0,0,–
CCCCC(CC)COC(=O)CC(C(=O)OCC(CC)CCCC)S(=O)(=O)O (centres undefined) [DOCUSATE],0,0,yes,2 days - 1 year,1,0,0,0,0,1,0,0,0,0,0,0,–
C=C(CC)C(=O)c1ccc(OCC(=O)O)c(Cl)c1Cl [ETHACRYNIC ACID],0,0,yes,2 weeks - 4 weeks,0,2,2,0,2,0,0,0,0,0,0,0,–
O=C(O)CCC(=O)c1ccc(-c2ccccc2)cc1 [FENBUFEN],25,0,yes,10 days - 2 weeks,7,5,1,2,0,0,0,0,0,0,0,0,–
O=C1c2ccccc2C(=O)C1c1ccc(F)cc1 [FLUINDIONE],0,0,yes,1 week - 3 months,0,7,5,1,0,0,0,0,0,0,0,0,–
CC(C(=O)O)c1ccc(-c2ccccc2)c(F)c1 (centres undefined) [FLURBIPROFEN],8.1,0,yes,1 day - 2 months,4,3,2,1,0,0,0,0,0,0,0,0,–
C[C@@H]1O[C@@H]1P(=O)(O)O [FOSFOMYCIN],23.8,0,yes,3 days - 4 days,8,1,1,0,0,0,0,0,0,0,0,0,–
NS(=O)(=O)c1cc2c(cc1Cl)NCNS2(=O)=O [HYDROCHLOROTHIAZIDE],2.4,0,yes,17 days - 14 months,2,4,3,1,1,0,0,0,0,0,0,0,–
Nc1cc(-c2ccncc2)c[nH]c1=O [INAMRINONE],33,0,yes,1 week - 3 weeks,9,6,2,2,0,0,0,0,0,0,0,0,–
CN(C)CCCn1c2c(c3ccccc31)CCCCCC2 [IPRINDOLE],–,–,yes,2 weeks - 1 month,1,6,–,–,–,0,0,–,0,0,0,0,Hepatotoxicity (moderate) ([1]; Liver): 0%; Hepatotoxicity (acute) ([2]; Liver): 0%; Hepatotoxicity (cytolytic) ([7]; Liver): 1; Hepatotoxicity (choleostasis) ([8]; Liver): 6; Hepatotoxicity (severe hepatitis) ([9]; Liver): 0; Hepatotoxicity (granulomatous hepatitis) ([12]; Liver): 0
COc1c2occc2c(OC)c2c(=O)cc(C)oc12 [KHELLIN],0,0,yes,5 weeks,1,1,1,0,0,0,0,0,0,0,0,0,–
Cc1c(OCC(F)(F)F)ccnc1C[S+]([O-])c1nc2ccccc2[nH]1 (centres undefined) [LANSOPRAZOLE],10.5,0,yes,13 days - 5 weeks,7,4,3,1,1,0,0,0,0,0,0,0,–
